What was measured:
[1] = Pharmacokinetic evaluation in SD rats; assay type: in vivo; conditions: both sexes, rat, plasma, po, i.g., 2.0 mg/kg; for Vd/F: read-out: Apparent distribution volume Vz/F; for AUC(0-t): read-out: Area under curve AUC0-t; for CL/F: read-out: Clearance rate CL/F; for half-life: read-out: Half-life T½ (converted); for Cmax: read-out: Plasma concentration Cmax
Experimental: Test Example 5: Pharmacokinetic Evaluation
(§1) SD rats were used as test animals. After intragastric (i.g.) administration of the compounds of the present disclosure to SD rats, the plasma concentrations at different time points were measured by the LC/MS/MS method. The pharmacokinetic behavior of the compounds of the present disclosure in SD rats was studied, and their pharmacokinetic profiles were evaluated.
Compound 2, compound 7, compound 21, and compound 23.
16 SD rats, of which half were male and half female, were evenly divided into 4 groups. The rats were provided by Vital River Laboratory Animal Technology Co., Ltd. The rats were fasted overnight and intragastrically administered the compounds.
(§2) 2.3. Compound Solution Preparation
A certain amount of test compound was weighed out and dissolved in 5% DMSO+5% tween 80+90% normal saline to prepare a 0.2 mg/mL colorless clear solution.
The dose administered was 2.0 mg/kg, and the volume was 10.0 mL/kg.
(§3) 0.1 mL blood samples were collected from the orbit before the administration and 0.25 h, 0.5 h, 1.0 h, 2.0 h, 4.0 h, 6.0 h, 8.0 h, 11.0 h and 24.0 h post-dose. The blood samples were placed into EDTA-K2 anticoagulation tubes and centrifuged at 10,000 rpm for 1 min (4° C.), and plasma was separated within 1 h and stored at −20° C. before analysis. The process from the blood collection to the centrifugation was performed in an ice bath. Access to food was given 2 h post-dose.
Measurement of plasma concentrations in SD rats after compounds were administered in different concentrations: 25 μL samples of the SD rat plasma collected at various time points post-dose were taken, and to each of the samples was added 25 μL of camptothecin (an internal standard for compound 2, 100 ng/mL) or 50 μL of tolbutamide (an internal standard for compound 7, 100 ng/mL) or 50 μL of verapamil (an internal standard for compounds 21 and 23, 100 ng/mL). Protein was precipitated with 200 μL of acetonitrile, and after 5 min of vortexing, the mixtures were centrifuged at 3700 rpm for 10 min. 120 µL of supernatant was taken and vortexed with 30 μL of water for 5 min, and a 5 μL sample was taken for LC/MS/MS analysis.

[2] = Pharmacokinetic evaluation in C57 mice; assay type: in vivo; conditions: for Vd / AUC(0-t) / half-life / Cmax / bioavailability / CL/F: both sexes, mouse, plasma; for Vd: read-out: Apparent distribution volume Vss; for AUC(0-t): read-out: Area under curve AUC0-t; for half-life: read-out: Half-life T½ (converted); for Cmax: read-out: Plasma concentration Cmax; for bioavailability: oral, i.g. 2.0 mg/kg vs i.v. 1.0 mg/kg, read-out: Bioavailability F (%); for CL/F: read-out: Clearance rate CL/F; for Clearance rate CL/F: i.v.
Experimental: as §1, with “C57 mice” for “SD rats”, “(i.g.)/intravenous (i.v.)” for “(i.g.)”, “C57 mice,” for “SD rats,”, “studied” for “studied,”
Compound 2 and compound 3.
36 C57 mice, of which half were male and half female, were evenly divided into 4 groups of 9, 3 mice per time point per group. The mice were provided by Vital River Laboratory Animal Technology Co., Ltd. The mice were intragastrically and intravenously administered the compounds.
as §2
A certain amount of test compound was weighed out and dissolved in 5% DMSO+5% tween 80+90% normal saline to prepare a 0.1 mg/mL colorless clear solution (for the intragastric administration groups) and a 0.1 mg/mL colorless clear solution (for the intravenous administration groups).
Intragastric administration groups: The dose was 2.0 mg/kg, and the volume was 0.2 mL/10 g.
Intravenous administration groups: The dose was 1.0 mg/kg, and the volume was 0.1 mL/10 g.
as §3, with “Intragastric administration groups: 0.1” for “0.1”, “collected” for “collected from the orbit”, “−80°” for “−20°”, “bath.” for “bath. Access to food was given 2 h post-dose.”
Intravenous administration groups: Blood samples were collected before administration and 5 min, 0.25 h, 0.5 h, 1.0 h, 2.0 h, 4.0 h, 8.0 h, 11.0 h and 24 h post-dose and were treated in the same way as those collected from the intragastric administration groups.
Measurement of plasma concentrations in C57 mice after compounds were administered in different concentrations: 25 μL samples of the C57 mouse plasma collected at various time points post-dose were taken, and to each of the samples was added 50 μL of diclofenac (an internal standard for compound 2, 100 ng/mL) or 25 μL of tolbutamide (an internal standard for compound 3, […], purchased from LGC Ltd., UK). Protein was precipitated with 200 μL of acetonitrile, and after 5 min of vortexing, the mixtures were centrifuged at 3700 rpm for 10 min. 120 μL of supernatant was taken and vortexed with 30 μL of water for 5 min, and a 5 μL sample was taken for LC/MS/MS analysis. 4. Pharmacokinetic parameters

Vd/F [1] [L/kg]	AUC(0-t) [1] [µg·h/mL]	CL/F [1] [mL/min/kg]	half-life [1] [h]	Cmax [1] [ng/mL]	Vd ([2]; iv, 1.0 mg/kg) [L/kg]	AUC(0-t) ([2]; iv, 1.0 mg/kg) [µg·h/mL]	half-life ([2]; iv, 1.0 mg/kg) [h]	Cmax ([2]; iv, 1.0 mg/kg) [ng/mL]	bioavailability [2] [%]	AUC(0-t) ([2]; po, i.g., 2.0 mg/kg) [µg·h/mL]	CL/F ([2]; po, i.g., 2.0 mg/kg) [mL/min/kg]	half-life ([2]; po, i.g., 2.0 mg/kg) [h]	Cmax ([2]; po, i.g., 2.0 mg/kg) [ng/mL]	Clearance rate CL/F ([2]; 1.0 mg/kg) [mL/min/kg]	Compound
0.202	43.3	0.8	2.96	8210	0.093	188	18.4	17600	108	405	0.033	29.7	40100	0.0504	COc1cccc(OC)c1S(=O)(=O)Nc1noc2cc(Cn3cccn3)c3c(c12)OCCC3 [Compound 2, N-(5-((1H-pyrazol-1-yl)methyl)-3,4-dihydro-2H-chromeno[8,7-d]isoxazol-9-yl)-2,6-dimethoxybenzenesulfonamide]
					0.102	209	49	22100	94.1	393	0.0225	58.3	33000	0.0251	COc1ccccc1S(=O)(=O)Nc1noc2cc(Cn3cccn3)c3c(c12)OCCC3 [Compound 3, N-(5-((1H-pyrazol-1-yl)methyl)-3,4-dihydro-2H-chromeno[8,7-d]isoxazol-9-yl)-2-methoxybenzenesulfonamide]
0.25	81.3	0.614	6.71	9200											CCOc1cc(C)ccc1S(=O)(=O)Nc1noc2cc(Cn3cccn3)c3c(c12)OCCC3 [Compound 7, N-(5-((1H-pyrazol-1-yl)methyl)-3,4-dihydro-2H-chromeno[8,7-d]isoxazol-9-yl)-2-ethoxy-4-methylbenzenesulfonamide]
0.47	61.2	0.431	13.7	6240											COc1cccc(OC(F)(F)F)c1S(=O)(=O)Nc1noc2cc(Cn3cccn3)c3c(c12)OCC3 [Compound 23, N-(4-((1H-pyrazol-1-yl)methyl)-2,3-dihydrobenzofuro[7,6-d]isoxazol-8-yl)-2-methoxy-6-(trifluoromethoxy)benzenesulfonamide]

Source: patent publication US20250145637A1, “SULFONAMIDE DERIVATIVE, PREPARATION METHOD THEREFOR AND MEDICAL USE THEREOF” (Jiangsu Hengrui Pharmaceuticals Co. Ltd., priority 2021, published 2025)
